Results: US20070254917A1, “INTRACELLULAR RECEPTOR MODULATOR COMPOUNDS AND METHODS” (priority 2004, published 2007)

Molecular target: T1, human glucocorticoid receptor protein (GR) (Homo sapiens, UniProt P04150)
T1 construct: made in house; host or cells: Sf21 insect cells (baculovirus)
T1 sequence (P04150 1-777): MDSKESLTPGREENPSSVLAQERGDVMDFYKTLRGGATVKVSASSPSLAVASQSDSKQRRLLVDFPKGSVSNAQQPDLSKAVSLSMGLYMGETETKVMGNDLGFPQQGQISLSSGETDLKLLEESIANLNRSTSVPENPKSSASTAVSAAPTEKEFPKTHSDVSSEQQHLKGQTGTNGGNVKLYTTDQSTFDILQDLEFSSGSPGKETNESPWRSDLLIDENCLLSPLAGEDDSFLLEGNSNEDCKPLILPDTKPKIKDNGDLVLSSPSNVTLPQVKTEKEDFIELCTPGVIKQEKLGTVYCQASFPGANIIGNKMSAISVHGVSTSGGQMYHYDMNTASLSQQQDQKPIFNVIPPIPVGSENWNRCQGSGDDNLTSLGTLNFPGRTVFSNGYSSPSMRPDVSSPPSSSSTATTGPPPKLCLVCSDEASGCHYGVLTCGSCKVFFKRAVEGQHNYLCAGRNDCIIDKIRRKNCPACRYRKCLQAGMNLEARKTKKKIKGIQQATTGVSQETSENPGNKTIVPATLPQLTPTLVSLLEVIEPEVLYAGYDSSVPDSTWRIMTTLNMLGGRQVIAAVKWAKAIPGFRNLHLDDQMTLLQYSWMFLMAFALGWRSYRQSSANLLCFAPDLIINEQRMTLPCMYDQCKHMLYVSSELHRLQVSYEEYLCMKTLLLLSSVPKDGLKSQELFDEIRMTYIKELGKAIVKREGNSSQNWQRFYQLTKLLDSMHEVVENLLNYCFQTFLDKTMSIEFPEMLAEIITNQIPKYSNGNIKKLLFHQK
Experiment: Glucocorticoid binding assay ([3H]dexamethasone displacement, GR lysate)
Conditions: baculovirus-expressed GR lysate from Sf21 cells; 2-4 nM [3H]dexamethasone; 16 hours at 4° C.; Cheng-Prusoff from IC50
Procedure: A baculovirus expression plasmid comprising cDNA encoding the human glucocorticoid receptor protein (GR) was prepared using standard techniques. […] That expression plasmid was co-transfected together with wild type Autographa californica multiple nuclear polyhedrosis virus DNA into Spodopter frugiperda-21 (Sf-21) cells to generate recombinant virus comprising GR cDNA. […] That recombinant virus comprising GR cDNA was collected.
A suspension culture of uninfected Sf21 cells was grown to a density of 1.2×10^6 cells/ml and then infected with the recombinant virus comprising GR cDNA at a multiplicity of infection of 2. Those infected Sf21 cells were incubated for 48 hours and then collected by centrifugation at 1000×g for 10 minutes at 4° C. The resulting cell pellets were resuspended in lysis buffer (50 mM Potassium Phosphate buffer, pH 7.0, 10 mM Monothioglycerol, 5 mM DTT, 20 mM Sodium Molybdate, 1 mM PMSF, 1 μg/mL aprotinin, and 10 μg/mL leupeptin) and incubated for 15 minutes on ice. Those resuspended cell pellets were homogenized using a Dounce homogenizer and a B pestle. A volume of 2 M KCl was added to the homogenized cell pellets to a final concentration of 0.4 M. The resulting GR lysates were centrifuged at 100,000×g for 60 min at 4° C. and stored for use in binding assays.
Binding assay samples were prepared in separate mini-tubes in a 96-well format at 4° C. […] Each reference compound and test compound was assayed at varying concentrations, ranging from 0 to 10^−5 M. Each concentration of each reference compound and each test compound was assayed in triplicate. The assay samples were incubated for 16 hours at 4° C.
After incubation, 200 μl of 6.25% hydroxylapatite in assay buffer was added to each assay sample to precipitate the protein. The assay samples were then centrifuged and the supernatants were discarded. The resulting pellets were washed twice with assay buffer lacking DTT. Radioactivity in counts per minute (CPM) of each washed pellet was determined by liquid scintillation counter (MicroBeta™, Wallach).

Compound	Ki [nM]
COc1cccc(OC)c1-c1cc(C)c2c(c1Cl)C(C)CC(C)(C)N2 (racemic) [Compound 104, (±)-5-Chloro-6-(2,6-dimethoxyphenyl)-1,2,3,4-tetrahydro-2,2,4,8-tetramethylquinoline]	34
Cc1cc(-c2c(C)noc2C)c(Cl)c2c1NC(C)(C)C(O)C2C (racemic) [Compound 192, (±)-5-Chloro-6-(3,5-dimethylisoxazol-4-yl)-1,2,3,4-tetrahydro-3α-hydroxy-2,2,4α,8-tetramethylquinoline]	9.4
COc1c(C#N)cccc1-c1cc(C)c2c(c1Cl)C(C)C(=O)C(C)(C)N2 (racemic) [Compound 179, (±)-5-Chloro-6-(3-cyano-2-methoxyphenyl)-1,4-dihydro-2,2,4,8-tetramethyl-2H-quinolin-3-one]	2.6
Cc1cc(-c2ccc(F)c3c(C)c[nH]c23)c(Cl)c2c1NC(C)(C)CC2C (racemic) [Compound 147, (±)-5-Chloro-6-(4-fluoro-3-methylindol-7-yl)-1,2,3,4-tetrahydro-2,2,4,8-tetramethylquinoline]	2
Cc1cc(-c2c(C)noc2C)c(Cl)c2c1NC(C)(C)C(O)C2C (racemic) [Compound 164, (±)-5-Chloro-6-(3,5-dimethylisoxazol-4-yl)-1,2,3,4-tetrahydro-3β-hydroxy-2,2,4α,8-tetramethylquinoline]	3.3
Cc1cc(-c2csc3ccccc23)c(Cl)c2c1NC(C)(C)C(O)C2C (racemic) [Compound 194, (±)-6-(Benzothiophen-3-yl)-5-chloro-1,2,3,4-tetrahydro-3α-hydroxy-2,2,4α,8-tetramethylquinoline]	13
COc1c(C#N)cccc1-c1cc(C)c2c(c1Cl)C(C)C(O)C(C)(C)N2 (racemic) [Compound 165, (±)-5-Chloro-6-(3-cyano-2-methoxyphenyl)-1,2,3,4-tetrahydro-3β-hydroxy-2,2,4α,8-tetramethylquinoline]	2.7
CC(C)=CCC1(C)C(=O)C(C)(C)Nc2c(C)cc(-c3c(C)noc3C)c(Cl)c21 (racemic) [Compound 185, (±)-5-Chloro-4-(3,3-dimethylallyl)-6-(3,5-dimethylisoxazol-4-yl)-1,4-dihydro-2,2,4,8-tetramethyl-2H-quinolin-3-one]	2.5
Cc1cc(-c2cccc3ccccc23)c(Cl)c2c1NC(C)(C)CC2(C)O (racemic) [Compound 215, (±)-5-Chloro-1,2,3,4-tetrahydro-4-hydroxy-2,2,4,8-tetramethyl-6-(naphthal-1-yl)quinoline]	5.9
COc1c(C#N)cccc1-c1cc(C)c2c(c1Cl)C(C)C(O)C(C)(C)N2 (racemic) [Compound 191, (±)-5-Chloro-6-(3-cyano-2-methoxyphenyl)-1,2,3,4-tetrahydro-3α-hydroxy-2,2,4α,8-tetramethylquinoline]	4.8
Cc1cc(-c2ccsc2)c(Cl)c2c1NC(C)(C)C(O)C2C (racemic) [Compound 160, (±)-5-Chloro-1,2,3,4-tetrahydro-3β-hydroxy-2,2,4α,8-tetramethyl-6-(thiophen-3-yl)quinoline]	130
CC(C)=CCOc1c(-c2cc(C)c3c(c2Cl)C(C)CC(C)(C)N3)cccc1[N+](=O)[O-] (racemic) [Compound 203, (±)-5-Chloro-1,2,3,4-tetrahydro-2,2,4,8-tetramethyl-6-[2-(methylbut-2-enyloxy)-3-nitrophenyl]quinoline]	56

Continued, values first:

Ki [nM]	Compound
5.7	Cc1cc(-c2cccc3c2NCC3)c(Cl)c2c1NC(C)(C)CC2C (racemic) [Compound 210, (±)-5-Chloro-1,2,3,4-tetrahydro-6-(indolin-7-yl)-2,2,4,8-tetramethylquinoline]
4	Cc1cc(-c2csc3ccccc23)c(Cl)c2c1NC(C)(C)CC2C (racemic) [Compound 109, (±)-6-(Benzothiophen-3-yl)-5-chloro-1,2,3,4-tetrahydro-2,2,4,8-tetramethylquinoline]
22	Cc1cc(-c2ccccc2Cl)c(Cl)c2c1NC(C)(C)CC2C (racemic) [Compound 118, (±)-5-Chloro-6-(2-chlorophenyl)-1,2,3,4-tetrahydro-2,2,4,8-tetramethylquinoline]
2.9	COc1c(-c2cc(C)c3c(c2Cl)C(C)CC(C)(C)N3)cccc1[N+](=O)[O-] (racemic) [Compound 156, (±)-5-Chloro-1,2,3,4-tetrahydro-6-(2-methoxy-3-nitrophenyl)-2,2,4,8-tetramethylquinoline]
87	Cc1cc(-c2cccc3c2OCC(=O)N3C)c(Cl)c2c1NC(C)(C)CC2C (racemic) [Compound 205, (±)-5-Chloro-1,2,3,4-tetrahydro-2,2,4,8-tetramethyl-6-(4-methyl-2H-1,4-benzoxazin-3(4H)-on-8-yl)quinoline]
78	Cc1cc(-c2ccccc2[N+](=O)[O-])c(Cl)c2c1NC(C)(C)CC2C (racemic) [Compound 122, (±)-5-Chloro-1,2,3,4-tetrahydro-2,2,4,8-tetramethyl-6-(2-nitrophenyl)quinoline]
420	Cc1cc(-c2cc3ccccc3s2)c(Cl)c2c1NC(C)(C)CC2C (racemic) [Compound 116, (±)-6-(Benzothiophen-2-yl)-5-chloro-1,2,3,4-tetrahydro-2,2,4,8-tetramethylquinoline]
0.4	Cc1cc(-c2cccc3c2CCC3=NO)c(Cl)c2c1NC(C)(C)CC2C (racemic) [Compound 154, (±)-5-Chloro-6-(1-hydroxyiminoindan-4-yl)-1,2,3,4-tetrahydro-2,2,4,8-tetramethylquinoline]
1.4	Cc1cc(-c2cccc(C#N)c2C)c(Cl)c2c1NC(C)(C)CC2C (racemic) [Compound 155, (±)-5-Chloro-6-(3-cyano-2-methylphenyl)-1,2,3,4-tetrahydro-2,2,4,8-tetramethylquinoline]
14	COc1ccc(Cl)cc1-c1cc(C)c2c(c1Cl)C(C)CC(C)(C)N2 (racemic) [Compound 121, (±)-5-Chloro-6-(5-chloro-2-methoxyphenyl)-1,2,3,4-tetrahydro-2,2,4,8-tetramethylquinoline]
8.8	Cc1cc(-c2cccc3ccccc23)c(Cl)c2c1NC(C)(C)CC2C (racemic) [Compound 135, (±)-5-Chloro-1,2,3,4-tetrahydro-2,2,4,8-tetramethyl-6-(naphthal-1-yl)quinoline]
97	CC(=O)c1ccccc1-c1cc(C)c2c(c1Cl)C(C)CC(C)(C)N2 (racemic) [Compound 119, (±)-6-(2-Acetylphenyl)-5-chloro-1,2,3,4-tetrahydro-2,2,4,8-tetramethylquinoline]
81	Cc1cc(-c2cccc(C(F)(F)F)c2F)c(Cl)c2c1NC(C)(C)CC2C (racemic) [Compound 130, (±)-5-Chloro-6-[2-fluoro-3-(trifluoromethyl)phenyl]-1,2,3,4-tetrahydro-2,2,4,8-tetramethylquinoline]
26	Cc1cc(-c2cccc3c2OCC(=O)N3)c(Cl)c2c1NC(C)(C)CC2C (racemic) [Compound 204, (±)-6-(2H-1,4-Benzoxazin-3(4H)-on-8-yl)-5-chloro-1,2,3,4-tetrahydro-2,2,4,8-tetramethylquinoline]
3.6	COc1c(O)cccc1-c1cc(C)c2c(c1Cl)C(C)CC(C)(C)N2 (racemic) [Compound 151, (±)-5-Chloro-1,2,3,4-tetrahydro-6-(3-hydroxy-2-methoxyphenyl)-2,2,4,8-tetramethylquinoline]
